The results in this text go back to patent US20020164333A1, “Bifunctional molecules and vectors complexed therewith for targeted gene delivery” (The Scripps Research Institute, priority 2000, published 2002).

The test concerns M21-L12 melanoma cells. Briefly: Ad-mediated gene delivery after pretreatment of cells with PI3K inhibitors. Type of test: cell-based, human. The protocol:
Efficient Ad internalization via αv integrins requires activation of PI3K, a key cellular signaling molecule. […] Ad mediated gene delivery was analyzed 48 hours post infection.

Turning to `O=c1cc(N2CCOCC2)oc2c(-c3ccccc3)cccc12` [LY294002], the “inhibition of Ad-mediated gene delivery” value (cells pretreated 30 min with wortmannin (30 nM) or LY292004 (20 μM) before Ad.RSV.βgal complexed with D or DT, 48 hours post infection) was about 50%.
For `COC[C@H]1OC(=O)c2coc3c2[C@@]1(C)C1=C(C3=O)[C@@H]2CCC(=O)[C@@]2(C)C[C@H]1OC(C)=O` [Wortmannin, wortmannin], the inhibition at 0.03 µM (Homo sapiens, read-out: inhibition of Ad-mediated gene delivery) was about 70%.

What is called inhibition is the change of the read-out against control, counted positive when it falls.
